For experiment [1], the target named is T1, APH(3′)-IIIa (aminoglycoside phosphotransferase(3′)-IIIa) (Enterococcus faecalis, UniProt P0A3Y5).
T1 construct: gene aphA; recombinant, N-terminal 6His-tag kept (pET15b), E. coli BL21(DE3)
Briefly: quench flow and coupled-assay stopped flow, ADP production. The format is biochemical. The settings on record: 100 μM KanA, 200 μM ATP, 0.2 μM enzyme, 25 °C, pH 7.5; KanA also binds the E·ADP complex (uncompetitive-type abortive complex).

In experiment [2] the target is T1, APH(3′)-IIIa (aminoglycoside phosphotransferase(3′)-IIIa). Briefly: rapid quench flow, total ADP by HPLC. The experiment is classed as biochemical. As to conditions: 20 μM ADP added together with 20 μM ATP, 5 μM enzyme, 100 μM KanA, 25 °C, pH 7.5; competes with ATP for E·KanA; also the reaction product.

T1 sequence (P0A3Y5 whole entry): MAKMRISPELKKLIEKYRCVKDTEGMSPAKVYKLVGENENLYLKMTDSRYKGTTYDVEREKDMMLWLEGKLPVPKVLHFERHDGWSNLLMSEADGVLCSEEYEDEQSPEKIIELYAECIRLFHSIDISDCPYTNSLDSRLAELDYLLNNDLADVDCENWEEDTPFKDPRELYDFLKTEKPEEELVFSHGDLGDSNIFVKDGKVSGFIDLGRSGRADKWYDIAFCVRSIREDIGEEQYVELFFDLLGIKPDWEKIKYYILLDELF

As to `NC[C@H]1O[C@H](O[C@H]2[C@H](O)[C@@H](O[C@H]3O[C@H](CO)[C@@H](O)[C@H](N)[C@H]3O)[C@H](N)C[C@@H]2N)[C@H](O)[C@@H](O)[C@@H]1O` [kanamycin A], the “quench flow and coupled-assay stopped flow, ADP production” value in experiment [1] is on record as “The initial kss determined by the two methods were identical”.
Regarding `Nc1ncnc2c1ncn2[C@@H]1O[C@H](COP(=O)(O)OP(=O)(O)O)[C@@H](O)[C@H]1O` [ADP], in experiment [2], the “% reduction of kss and Aburst” value was ~ 50%.

Source of the values: PMC3510435 (Febs Letters, 2012).
